Key:
Format in all cases: cell-based
Settings in all cases: compound concentration 50 μM, 72 hours
SU-DHL6 = test: Inhibition of tumor cell proliferation, CellTiter-Glo, SU-DHL6
Method: (§1) For various cell lines, the corresponding complete medium was used, and culture was carried out in an incubator at 37° C. with 5% CO2. The cells were counted, and inoculated into a 96-well plate at 2000-10000 cells/100 μl per well according to the cell volume and growth rate. The suspended cells were treated immediately, and the adherent cells were treated after adherence. The CellTiter-Glo method was used to detect the changes in cell viability 72 hours after the administration, and the cell survival rate at different concentrations was calculated by a formula: Survival rate (%)=(RLU of treatment well−RLU of blank well)/(RLU of control well−RLU of blank well)×100.
(§2) Method for expressing the inhibitory activity of the compounds against the proliferation of tumor cells: Evaluation was made based on the cell survival rate at a compound concentration of 50 μM. 60≤survival rate (%)<90 is considered to have low inhibitory activity against the proliferation of tumor cells (+); 30<survival rate (%)≤60 is considered to have moderate inhibitory activity against the proliferation of tumor cells (++); and survival rate (%)≤30 is considered to have high inhibitory activity against the proliferation of tumor cells (+++).

RPMI-8226 = test: Inhibition of tumor cell proliferation, CellTiter-Glo, RPMI-8226
Method: as §1, §2

K562 = test: Inhibition of tumor cell proliferation, CellTiter-Glo, K562
Method: as §1, §2

A549 = test: Inhibition of tumor cell proliferation, CellTiter-Glo, A549
Method: as §1, §2

MDA-MB-453 = test: Inhibition of tumor cell proliferation, CellTiter-Glo, MDA-MB-453
Method: as §1, §2

BxPC-3 = test: Inhibition of tumor cell proliferation, CellTiter-Glo, BxPC-3
Method: as §1, §2

| SMILES | Inhibitory activity against proliferation (cell survival rate) SU-DHL6 (SU-DHL6) | Inhibitory activity against proliferation (cell survival rate) RPMI-8226 (RPMI-8226) | Inhibitory activity against proliferation (cell survival rate) K562 (K562) | Inhibitory activity against proliferation (cell survival rate) A549 (A549) | Inhibitory activity against proliferation (cell survival rate) MDA-MB-453 (MDA-MB-453) | Inhibitory activity against proliferation (cell survival rate) BxPC-3 (BxPC-3) |
| --- | --- | --- | --- | --- | --- | --- |
| O=C1CCC(N2Cc3c(NC=C4C(=O)CC(c5csc6ccccc56)CC4=O)cccc3C2=O)C(=O)N1 (stereo not drawn) [Compound 37] | +++ (survival rate (%)≤30) | + (60≤survival rate (%)<90) | + (60≤survival rate (%)<90) | + (60≤survival rate (%)<90) | +++ (survival rate (%)≤30) | + (60≤survival rate (%)<90) |
| COc1ccc(C2CC(=O)C(=CNc3cccc4c3CN(C3CCC(=O)NC3=O)C4=O)C(=O)C2)c(OC)c1 (stereo not drawn) [Compound 40] | + (60≤survival rate (%)<90) | + (60≤survival rate (%)<90) | +++ (survival rate (%)≤30) | +++ (survival rate (%)≤30) | + (60≤survival rate (%)<90) | ++ (30<survival rate (%)≤60) |
| Cc1cc(C(=O)Nc2cccc3c2CN(C2CCC(=O)NC2=O)C3=O)ccc1NC=C1C(=O)CC(c2ccccc2)CC1=O (stereo not drawn) [Compound 51] | + (60≤survival rate (%)<90) | +++ (survival rate (%)≤30) | + (60≤survival rate (%)<90) | + (60≤survival rate (%)<90) | + (60≤survival rate (%)<90) | + (60≤survival rate (%)<90) |
| O=C1CCC(N2Cc3c(NC(=O)c4ccccc4NC=C4C(=O)CC(c5ccccc5)CC4=O)cccc3C2=O)C(=O)N1 (stereo not drawn) [Compound 52] | + (60≤survival rate (%)<90) | +++ (survival rate (%)≤30) | +++ (survival rate (%)≤30) | ++ (30<survival rate (%)≤60) | ++ (30<survival rate (%)≤60) | + (60≤survival rate (%)<90) |
| O=C1CCC(N2Cc3c(NC(=O)c4cccc(NC=C5C(=O)CC(c6ccccc6)CC5=O)c4)cccc3C2=O)C(=O)N1 (stereo not drawn) [Compound 53] | +++ (survival rate (%)≤30) | +++ (survival rate (%)≤30) | +++ (survival rate (%)≤30) | +++ (survival rate (%)≤30) | ++ (30<survival rate (%)≤60) | + (60≤survival rate (%)<90) |
| O=C1CCC(N2Cc3c(NC(=O)CN4CCN(CCNC=C5C(=O)CC(c6ccccc6)CC5=O)CC4)cccc3C2=O)C(=O)N1 (stereo not drawn) [Compound 54] | +++ (survival rate (%)≤30) | ++ (30<survival rate (%)≤60) | +++ (survival rate (%)≤30) | +++ (survival rate (%)≤30) | ++ (30<survival rate (%)≤60) | + (60≤survival rate (%)<90) |
| O=C1CCC(N2C(=O)c3cccc(NC(=O)CN4CCN(CCNC=C5C(=O)CC(c6ccccc6)CC5=O)CC4)c3C2=O)C(=O)N1 (stereo not drawn) [Compound 55] | +++ (survival rate (%)≤30) | ++ (30<survival rate (%)≤60) | + (60≤survival rate (%)<90) | +++ (survival rate (%)≤30) | ++ (30<survival rate (%)≤60) | + (60≤survival rate (%)<90) |
| O=C1CCC(N2Cc3c(NC(=O)CCC(=O)OCCN4CCN(CCNC=C5C(=O)CC(c6ccccc6)CC5=O)CC4)cccc3C2=O)C(=O)N1 (stereo not drawn) [Compound 56] | +++ (survival rate (%)≤30) | + (60≤survival rate (%)<90) | + (60≤survival rate (%)<90) | +++ (survival rate (%)≤30) | +++ (survival rate (%)≤30) | + (60≤survival rate (%)<90) |
| O=C1CCC(N2C(=O)c3cccc(NC(=O)CCC(=O)OCCN4CCN(CCNC=C5C(=O)CC(c6ccccc6)CC5=O)CC4)c3C2=O)C(=O)N1 (stereo not drawn) [Compound 57] | +++ (survival rate (%)≤30) | + (60≤survival rate (%)<90) | + (60≤survival rate (%)<90) | + (60≤survival rate (%)<90) | + (60≤survival rate (%)<90) | + (60≤survival rate (%)<90) |
| O=C1CCC(N2Cc3c(NC(=O)C4CCN(CCNC=C5C(=O)CC(c6ccccc6)CC5=O)CC4)cccc3C2=O)C(=O)N1 (stereo not drawn) [Compound 61] | ++ (30<survival rate (%)≤60) | + (60≤survival rate (%)<90) | + (60≤survival rate (%)<90) | + (60≤survival rate (%)<90) | +++ (survival rate (%)≤30) | + (60≤survival rate (%)<90) |
| O=C1CCC(N2Cc3c(NC(=O)c4cnc(NC=C5C(=O)CC(c6ccccc6)CC5=O)s4)cccc3C2=O)C(=O)N1 (stereo not drawn) [Compound 62] | ++ (30<survival rate (%)≤60) | +++ (survival rate (%)≤30) | + (60≤survival rate (%)<90) | ++ (30<survival rate (%)≤60) | +++ (survival rate (%)≤30) | ++ (30<survival rate (%)≤60) |
| O=C1CCC(N2C(=O)c3cccc(NC(=O)c4cnc(NC=C5C(=O)CC(c6ccccc6)CC5=O)s4)c3C2=O)C(=O)N1 (stereo not drawn) [Compound 63] | ++ (30<survival rate (%)≤60) | ++ (30<survival rate (%)≤60) | +++ (survival rate (%)≤30) | + (60≤survival rate (%)<90) | + (60≤survival rate (%)<90) | + (60≤survival rate (%)<90) |
| O=C1CCC(N2Cc3c(NC(=O)[C@@H]4C[C@H](O)CN4CCNC=C4C(=O)CC(c5ccccc5)CC4=O)cccc3C2=O)C(=O)N1 (stereo partly drawn) [Compound 65] | +++ (survival rate (%)≤30) | +++ (survival rate (%)≤30) | +++ (survival rate (%)≤30) | +++ (survival rate (%)≤30) | +++ (survival rate (%)≤30) | + (60≤survival rate (%)<90) |
| O=C1CCC(N2Cc3c(NC(=O)c4ccc(NC=C5C(=O)CC(c6ccccc6)CC5=O)nc4)cccc3C2=O)C(=O)N1 (stereo not drawn) [Compound 66] | +++ (survival rate (%)≤30) | + (60≤survival rate (%)<90) | +++ (survival rate (%)≤30) | +++ (survival rate (%)≤30) | ++ (30<survival rate (%)≤60) | + (60≤survival rate (%)<90) |

Source: patent US11021457B2, “Class of isoindolone-imide ring-1,3-dione-2-ene compounds, composition and use thereof” (WIGEN BIOMEDICINE TECHNOLOGY (SHANGHAI) CO., LTD., priority 2017, dated 2021)
